The source of these data is patent publication US20190335746A1, “ANTIMICROBIAL GAS RELEASING AGENTS AND SYSTEMS AND METHODS FOR USING THE SAME” (priority 2016, published 2019).

The data set in a line: Spiking the product matrices with ClO2 gas. The conditions noted are these: product matrices spiked with ClO2 gas.

Excerpt: Headspace samples underwent a colorimetric analysis for ClO2 gas.

As for `[O][Cl+][O-]` [ClO2 gas, chlorine dioxide], the “chlorine dioxide in the residual juice and tomato samples after spiking” value is reported as “no detectable chlorine dioxide”.
